Laboratory results: patent publication US8039586B1, “Cerebral organic anion transporter and its gene” (J-Pharma Co., Ltd., priority 1998, dated 2011)
Where two headings read alike, the source gives them in different places.

Legend:
Format in all cases: cell-based
rat OAT3 (rk1411) [1] = target: T1, rat OAT3 (rk1411) (Rattus norvegicus, UniProt Q9R1U7); assay: Michaelis-Menten dynamic test of organic anion transport with rk1411 in oocyte
T1 construct: cRNA (RNA complementary to cDNA) was prepared in vitro from the plasmid carrying the clone (rk1411); expressed in transfected cells; host or cells: Xenopus oocytes injected with rk1411 cRNA
T1 sequence (Q9R1U7 1-536): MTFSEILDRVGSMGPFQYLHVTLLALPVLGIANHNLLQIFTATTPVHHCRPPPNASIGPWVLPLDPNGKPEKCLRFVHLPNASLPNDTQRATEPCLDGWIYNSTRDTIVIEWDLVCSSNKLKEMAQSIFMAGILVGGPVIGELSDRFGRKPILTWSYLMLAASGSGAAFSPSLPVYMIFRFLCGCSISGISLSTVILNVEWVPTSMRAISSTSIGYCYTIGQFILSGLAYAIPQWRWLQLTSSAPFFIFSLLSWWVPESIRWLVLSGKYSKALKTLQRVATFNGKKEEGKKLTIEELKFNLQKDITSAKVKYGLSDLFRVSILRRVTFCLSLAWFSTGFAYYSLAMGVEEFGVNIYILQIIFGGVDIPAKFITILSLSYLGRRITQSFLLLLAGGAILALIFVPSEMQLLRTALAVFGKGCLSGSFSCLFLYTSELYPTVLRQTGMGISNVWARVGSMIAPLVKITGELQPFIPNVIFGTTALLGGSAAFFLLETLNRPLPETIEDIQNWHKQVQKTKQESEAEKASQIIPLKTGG
Source text: The organic anion transport with rk1411 was subjected to the Michaelis-Menten dynamic test.

hOAT3 [2] = target: T2, hOAT3 (Homo sapiens, UniProt Q8TCC7, D366H/K271E); assay: Inhibition of 3H-estrone sulfate uptake in oocyte injected with hOAT3 cRNA; set-up: cRNA (RNA complementary to cDNA) was prepared in vitro from the plasmid comprising the hOAT3 recovered above; expressed in transfected cells; host or cells: Xenopus oocytes injected with hOAT3 cRNA; details: 50 nM 3H-estrone sulfate; non-radiolabeled compound at 500 μM or the concentration shown in FIG. 19; one hour
T2 sequence (Q8TCC7 1-542 K271E/D366H): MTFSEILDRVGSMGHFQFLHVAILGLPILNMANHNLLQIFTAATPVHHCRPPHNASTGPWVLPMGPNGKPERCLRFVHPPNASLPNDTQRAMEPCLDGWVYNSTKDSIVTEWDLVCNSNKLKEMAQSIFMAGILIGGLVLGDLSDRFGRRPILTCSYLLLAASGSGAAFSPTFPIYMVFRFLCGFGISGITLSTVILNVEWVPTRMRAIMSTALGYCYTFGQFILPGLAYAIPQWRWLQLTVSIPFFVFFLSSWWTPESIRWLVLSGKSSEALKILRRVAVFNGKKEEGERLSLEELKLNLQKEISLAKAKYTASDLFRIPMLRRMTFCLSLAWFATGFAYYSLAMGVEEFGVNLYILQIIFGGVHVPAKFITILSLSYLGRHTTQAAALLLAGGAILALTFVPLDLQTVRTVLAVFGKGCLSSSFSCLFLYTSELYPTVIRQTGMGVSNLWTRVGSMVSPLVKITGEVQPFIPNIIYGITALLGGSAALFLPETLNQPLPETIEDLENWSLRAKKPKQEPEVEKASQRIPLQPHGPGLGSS

rat OAT3 (rk1411) [3] = target: T1, rat OAT3 (rk1411); assay: Uptake of radiolabeled organic anions and cations by Xenopus oocyte expressing rk1411 (rat OAT3); details: Xenopus oocyte injected with rk1411 cRNA; FIG. 1
hOAT3 [4] = target: T3, hOAT3 (Homo sapiens, UniProt Q8TCC7); assay: Uptake of radiolabeled compounds by Xenopus oocyte injected with hOAT3 cRNA
T3 construct: cRNA (RNA complementary to cDNA) was prepared in vitro from the plasmid comprising the hOAT3 recovered above; expressed in transfected cells; host or cells: Xenopus oocytes injected with hOAT3 cRNA
T3 sequence (Q8TCC7 1-542 K271E/D366H): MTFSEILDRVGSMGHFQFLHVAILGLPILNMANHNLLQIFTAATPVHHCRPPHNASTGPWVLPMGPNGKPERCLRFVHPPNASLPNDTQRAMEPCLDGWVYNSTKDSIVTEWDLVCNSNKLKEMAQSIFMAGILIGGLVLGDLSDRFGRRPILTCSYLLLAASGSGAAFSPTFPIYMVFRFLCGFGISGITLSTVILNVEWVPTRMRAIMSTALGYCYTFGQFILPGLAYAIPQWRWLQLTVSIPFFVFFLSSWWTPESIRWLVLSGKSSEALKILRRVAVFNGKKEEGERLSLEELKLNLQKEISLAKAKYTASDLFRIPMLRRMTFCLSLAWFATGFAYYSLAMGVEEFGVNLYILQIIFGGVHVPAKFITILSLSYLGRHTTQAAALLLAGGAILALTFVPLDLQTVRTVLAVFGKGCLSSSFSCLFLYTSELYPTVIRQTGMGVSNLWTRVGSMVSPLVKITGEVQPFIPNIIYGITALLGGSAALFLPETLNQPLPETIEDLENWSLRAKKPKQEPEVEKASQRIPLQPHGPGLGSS
Description: By using T7 RNA polymerase, cRNA (RNA complementary to cDNA) was prepared in vitro from the plasmid comprising the hOAT3 recovered above by the method by Sekine, et al. (see Sekine, T., et al. J. Biol. Chem., Vol. 272, pp. 18526-9, 1997).
According to the already reported method of Sekine, et al. (Sekine, T., et al. J. Biol. Chem., Vol. 272, pp. 18526-9, 1997), the resulting hOAT3 cRNA was injected in the Xenopus oocyte; the oocyte was subjected to an uptake test with various radiolabeled organic anions and organic cations. The control oocyte cell (oocyte cell with no injection of hOAT3 cRNA) and the oocyte cell injected with hOAT3 cRNA were cultured in a buffer containing the following radiolabels for one hour, to assay the uptake of the radiolabels into the oocytes.
In each figure, open column expresses the case of the control oocyte used; and closed column expresses the case of the oocyte injected with hOAT3 cRNA.

rat OAT3 (rk1411) [5] = target: T1, rat OAT3 (rk1411); assay: Inhibition of 3H-estrone sulfate uptake in oocyte injected with rk1411 cRNA
[6] = substrate: Nc1ccc(C(=O)NCC(=O)O)cc1; assay: Michaelis-Menten dynamic test of organic anion transport with rk1411 in oocyte; details: other: transport by rk1411 (rat OAT3) in Xenopus oocyte; FIG. 2
[7] = transport by rk1411 (rat OAT3) in Xenopus oocyte
[8] = substrate 10 μM, one hour, versus control oocyte
[9] = 1 mM unlabeled compound, Xenopus oocyte, FIG. 3
[10] = substrate 50 nM, one hour, versus control oocyte
[11] = substrate 100 nM, one hour, versus control oocyte

## Nc1ccc(C(=O)NCC(=O)O)cc1 [PAH, p-aminohippuric acid]
Rat OAT3 (rk1411) [1]
  Km: 64.7 ± 10 µM
Rat OAT3 (rk1411) [1]; [7]
  Vmax: 23.3 ± 2.8 pmol/hr/oocyte
hOAT3 [2]
  inhibition of the transport of 3H-estrone sulfate with hOAT3: significantly inhibited
Rat OAT3 (rk1411) [3]
  uptake of radiolabeled compound by oocyte in which rk1411 was expressed: could take up
hOAT3 [4]; [8]
  uptake of radiolabeled compound by oocyte with hOAT3 expression: takes up

## CC[N+](CC)(CC)CC [TEA, tetraethylammonium]
hOAT3 [2]
  inhibition of the transport of 3H-estrone sulfate with hOAT3: never exerted any inhibitory action
hOAT3 [4]
  uptake of radiolabeled compound by oocyte with hOAT3 expression: never transported

## CC1(C)S[C@@H]2[C@H](NC(=O)Cc3ccccc3)C(=O)N2[C@H]1C(=O)O [benzylpenicillin]
hOAT3 [2]
  inhibition of the transport of 3H-estrone sulfate with hOAT3: significantly inhibited
Rat OAT3 (rk1411) [5]; [9]
  inhibition of 3H-estrone sulfate transport with rk1411: significantly inhibited

## COc1ccc(CCN(C)CCCC(C#N)(c2ccc(OC)c(OC)c2)C(C)C)cc1OC (stereo not shown) [berapamil]
Rat OAT3 (rk1411) [5]; [9]
  inhibition of 3H-estrone sulfate transport with rk1411: never exerted any such inhibitory action

## O=C1OC(c2ccc(O)c(S(=O)(=O)O)c2)(c2ccc(O)c(S(=O)(=O)O)c2)c2c(Br)c(Br)c(Br)c(Br)c21 [bromosulfophthalein]
hOAT3 [2]
  inhibition of the transport of 3H-estrone sulfate with hOAT3: significantly inhibited
Rat OAT3 (rk1411) [5]; [9]
  inhibition of 3H-estrone sulfate transport with rk1411: significantly inhibited

## CCCCNc1cc(C(=O)O)cc(S(N)(=O)=O)c1Oc1ccccc1 [bumetanide]
Rat OAT3 (rk1411) [5]; [9]
  inhibition of 3H-estrone sulfate transport with rk1411: significantly inhibited

## C[C@H](CCC(=O)O)[C@H]1CC[C@H]2[C@@H]3[C@H](O)C[C@@H]4C[C@H](O)CC[C@]4(C)[C@H]3C[C@H](O)[C@]12C [cholic acid]
Rat OAT3 (rk1411) [5]; [9]
  inhibition of 3H-estrone sulfate transport with rk1411: significantly inhibited
hOAT3 [4]; [8]
  uptake of radiolabeled compound by oocyte with hOAT3 expression: takes up

## CN/C(=N/CCSCc1nc[nH]c1C)NC#N [cimetidine]
hOAT3 [4]; substrate 150 nM, one hour, versus control oocyte
  uptake of radiolabeled compound by oocyte with hOAT3 expression: takes up

## C[C@]12CC[C@@H]3c4ccc(O)cc4CC[C@H]3[C@@H]1CC[C@@H]2O[C@@H]1O[C@H](C(=O)O)[C@@H](O)[C@H](O)[C@H]1O [estradiol glucuronide]
hOAT3 [4]; [10]
  uptake of radiolabeled compound by oocyte with hOAT3 expression: takes up

## O=C(O)CCCC(=O)O [glutaric acid]
hOAT3 [2]
  inhibition of the transport of 3H-estrone sulfate with hOAT3: significantly inhibited
hOAT3 [4]; [8]
  uptake of radiolabeled compound by oocyte with hOAT3 expression: takes up

## N=C(N)N [guanidine]
Rat OAT3 (rk1411) [5]; [9]
  inhibition of 3H-estrone sulfate transport with rk1411: never exerted any such inhibitory action

## CC1(C)C(/C=C/C=C/C=C/C=C2\N(CCCCS(=O)(=O)O)c3ccc4ccccc4c3C2(C)C)=[N+](CCCCS(=O)(=O)[O-])c2ccc3ccccc3c21 [indocyanine green]
Rat OAT3 (rk1411) [5]; [9]
  inhibition of 3H-estrone sulfate transport with rk1411: significantly inhibited

## COc1ccc2c(c1)c(CC(=O)O)c(C)n2C(=O)c1ccc(Cl)cc1 [indomethacin]
hOAT3 [2]
  inhibition of the transport of 3H-estrone sulfate with hOAT3: significantly inhibited
hOAT3 [4]; [8]
  uptake of radiolabeled compound by oocyte with hOAT3 expression: takes up

## CN(Cc1cnc2nc(N)nc(N)c2n1)c1ccc(C(=O)N[C@@H](CCC(=O)O)C(=O)O)cc1 [methotrexate]
hOAT3 [2]
  inhibition of the transport of 3H-estrone sulfate with hOAT3: significantly inhibited
hOAT3 [4]; [11]
  uptake of radiolabeled compound by oocyte with hOAT3 expression: takes up

## C[C@@H]1Cc2c(Cl)cc(C(=O)N[C@@H](Cc3ccccc3)C(=O)O)c(O)c2C(=O)O1 [ochratoxin A]
Rat OAT3 (rk1411) [1]; [7]
  Vmax: 8.08 ± 0.33 pmol/hr/oocyte
Rat OAT3 (rk1411) [1]; transport by rk1411 (rat OAT3) in Xenopus oocyte, FIG. 2, listed as Ochratoxin A, read-out: Km
  Km: 0.739 ± 0.178 µM
Rat OAT3 (rk1411) [1]; transport by rk1411 (rat OAT3) in Xenopus oocyte, FIG. 2, read-out: Km
  Km: 0.74 µM
Rat OAT3 (rk1411) [3]
  uptake of radiolabeled compound by oocyte in which rk1411 was expressed: could take up
hOAT3 [4]; [11]
  uptake of radiolabeled compound by oocyte with hOAT3 expression: takes up

## CCCN(CCC)S(=O)(=O)c1ccc(C(=O)O)cc1 [probenecid]
hOAT3 [2]
  inhibition of the transport of 3H-estrone sulfate with hOAT3: significantly inhibited
Rat OAT3 (rk1411) [5]; [9]
  inhibition of 3H-estrone sulfate transport with rk1411: significantly inhibited

## CCCCC[C@H](O)/C=C/[C@H]1[C@H](O)CC(=O)[C@@H]1C/C=C\CCCC(=O)O [prostaglandin E2]
hOAT3 [4]; substrate 1 nM, one hour, versus control oocyte
  uptake of radiolabeled compound by oocyte with hOAT3 expression: takes up

## CN1C(C(=O)Nc2ccccn2)=C(O)c2ccccc2S1(=O)=O [pyroxicam]
Rat OAT3 (rk1411) [5]; [9]
  inhibition of 3H-estrone sulfate transport with rk1411: significantly inhibited

## O=C(O)c1ccccc1O [salicylic acid]
hOAT3 [4]; substrate 1 μM, one hour, versus control oocyte
  uptake of radiolabeled compound by oocyte with hOAT3 expression: takes up

## C[C@H](CCC(=O)NCCS(=O)(=O)O)[C@H]1CC[C@H]2[C@@H]3[C@H](O)C[C@@H]4C[C@H](O)CC[C@]4(C)[C@H]3C[C@H](O)[C@]12C [taurocholic acid]
hOAT3 [2]
  inhibition of the transport of 3H-estrone sulfate with hOAT3: significantly inhibited
Rat OAT3 (rk1411) [5]
  inhibition of 3H-estrone sulfate transport with rk1411: significantly inhibited
hOAT3 [4]; [8]
  uptake of radiolabeled compound by oocyte with hOAT3 expression: takes up

## dehydroepiandrosterone sulfate
hOAT3 [4]; [10]
  uptake of radiolabeled compound by oocyte with hOAT3 expression: takes up

B1: rat OAT3 (rk1411) (Rattus norvegicus) (protein)
chain: MTFSEILDRVGSMGPFQYLHVTLLALPVLGIANHNLLQIFTATTPVHHCRPPPNASIGPWVLPLDPNGKPEKCLRFVHLPNASLPNDTQRATEPCLDGWIYNSTRDTIVIEWDLVCSSNKLKEMAQSIFMAGILVGGPVIGELSDRFGRKPILTWSYLMLAASGSGAAFSPSLPVYMIFRFLCGCSISGISLSTVILNVEWVPTSMRAISSTSIGYCYTIGQFILSGLAYAIPQWRWLQLTSSAPFFIFSLLSWWVPESIRWLVLSGKYSKALKTLQRVATFNGKKEEGKKLTIEELKFNLQKDITSAKVKYGLSDLFRVSILRRVTFCLSLAWFSTGFAYYSLAMGVEEFGVNIYILQIIFGGVDIPAKFITILSLSYLGRRITQSFLLLLAGGAILALIFVPSEMQLLRTALAVFGKGCLSGSFSCLFLYTSELYPTVLRQTGMGISNVWARVGSMIAPLVKITGELQPFIPNVIFGTTALLGGSAAFFLLETLNRPLPETIEDIQNWHKQVQKTKQESEAEKASQIIPLKTGG
notes: cRNA (RNA complementary to cDNA) was prepared in vitro from the plasmid carrying the clone (rk1411); expressed in transfected cells; host or cells: Xenopus oocytes injected with rk1411 cRNA
[6]
  Km: 4.7 µM
